Reference: EP3056202A1, “BENZOPYRROLIDONE DERIVATIVES POSSESSING ANTIVIRAL AND ANTICANCER PROPERTIES” (Max-Planck-Gesellschaft zur Förderung der Wissenschaften …, priority 2015, dated 2016)
In brackets after ≈: the same amount, converted by molar mass.

Assays:
[1] = system: HCT-116 human colon carcinoma cell line; assay: In vitro growth inhibition of colon carcinoma cells, HCT-116 (CellTiter-Glo); assay type: cell-based; conditions: 72 hours incubation, read-out: HCT116 EC50
[2] = system: A549 human lung carcinoma cells; assay: Cell-based EC50 determination, A549 cells (CellTiter-Glo cell viability); conditions: A549, 24 h, read-out: A549 EC50 24h
Description: A549 human lung carcinoma cells were cultured in RPMI 1640 medium (Sigma) supplemented with 10% fetal bovine serum (Sigma) and Antibiotic-Antimycotic (Sigma) in tissue culture flasks at 37°C in a humidified 5% CO2 atmosphere. Cells were routinely assayed for mycoplasma contamination.
Two thousand cells were plated in 384-well tissue culture plates, and treated after 24 hours with a 10-point dilution series of the compounds (1.5 nM-30 uM), using the vehicle, DMSO as control. Cells were incubated for 24 hours after which the relative cell density was determined by CellTiter-Glo Luminescent Cell Viability Assay (Promega). This method determines the number of metabolically active cells in the culture based on quantitation of the ATP present. The luminescent signal was measured with an Analyst GT multimode reader (Molecular Devices). […]

physchem = assay type: physicochemical; conditions: kinetic from dmso stock
Description: Samples were diluted in DMSO (control), phosphate buffer pH = 7.4 and pH = 2.0, from 5mM stock solutions (solved in DMSO), with a 120 µM final concentration. The samples were incubated for 24 hours at room temperature followed by 30 minutes centrifugation at 3700 rpm. 40 µl of the supernatants were injected into HPLC (Waters 2795 Alliance HPLC equipped with Waters 996 PDA Detector (HPLC column: Waters XBridge, RP C18, 3.5 µm, 4.6 mm x 50 mm; gradient MeCN/H2O, containing 0.1% HCOOH: 5% MeCN (0.5 min), 5% to 95% MeCN (5 min), 95% MeCN (0.5 min); flow rate: 2.0 ml/min)) and the AUC values (measured on sample specific wavelength) of the buffered samples were divided by the AUC values (same wavelength as buffered samples') of the DMSO control samples. Table 3: Solubility in water for several compounds according to general formula (I)

human Akt1 kinase = human Akt1 kinase (Homo sapiens, UniProt P31749); assay: In vitro Akt1 assay (IMAP fluorescence polarization, phosphorylation of TAMRA-peptide); assay type: biochemical; conditions: 40 µM ATP
human Akt1 kinase, sequence (P31749 whole entry): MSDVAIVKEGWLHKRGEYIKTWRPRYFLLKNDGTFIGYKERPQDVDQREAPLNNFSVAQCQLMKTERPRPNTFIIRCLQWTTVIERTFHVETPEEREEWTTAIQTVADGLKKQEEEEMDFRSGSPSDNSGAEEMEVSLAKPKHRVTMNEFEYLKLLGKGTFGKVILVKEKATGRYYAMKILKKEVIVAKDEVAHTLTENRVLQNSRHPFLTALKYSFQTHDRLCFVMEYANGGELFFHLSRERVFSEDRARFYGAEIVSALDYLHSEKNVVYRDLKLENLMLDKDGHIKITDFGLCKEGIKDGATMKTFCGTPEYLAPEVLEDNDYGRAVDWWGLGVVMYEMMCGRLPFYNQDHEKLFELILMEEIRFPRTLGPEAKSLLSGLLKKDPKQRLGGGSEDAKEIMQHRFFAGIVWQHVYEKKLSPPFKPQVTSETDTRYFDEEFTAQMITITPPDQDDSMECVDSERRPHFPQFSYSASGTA
Description: The inhibition of Akt1 by the compounds described in the present invention were determined measuring the phosphorylation of a fluorescently-labeled peptide (TAMRA-peptide) by human Akt1 kinase by fluorescent polarization using a commercially available IMAP Screening Express Assay Kit (Molecular Devices).
Akt1 kinase assays were performed in low protein binding 384-well plates (Corning). Test compounds were diluted in 100% DMSO to 5 mM stock concentration and then further dilutions were made in H2O or 100% DMSO to desirable concentrations.
Each reaction consisted of 5 nM enzyme: Akt1 kinase, 400 nM TAMRA-peptide (5-TAMRA-GRTGRRNSI-COOH; Genecust), 40 µM ATP and kinase buffer: 20 mM MES pH6, 1 mM DTT, 10 mM MgCl2, 2 mM MnCl2, 0.01 V/V% TritonX (all reagents from Sigma-Aldrich).
(§1) For each reaction, 4 or 6 µl containing TAMRA-peptide, ATP and kinase buffer were combined with 2 µl diluted compound in H2O or 0.02 µl compound in 100% DMSO. The kinase reaction was started by the addition of 2 µl diluted enzyme. The reaction was allowed to run for 1 hour at room temperature. The reaction was stopped by adding 15 µl IMAP beads (1:400 beads in progressive (75% buffer A, 25% buffer B) 1x buffer). After an additional hour, fluorescent polarization (Ex: 550-10 nm, Em: 590-10 nm, Dich: 561 nm) was measured using an Analyst GT (Molecular Devices).

[3] = system: H1 N1 influenza virus strain A/WSN/33; assay: microbe, parasite or virus in culture; assay type: cell-based; conditions: 36 h, read-out: Influenza replication IC50
human Ack1 kinase = human Ack1 kinase (Homo sapiens, UniProt Q07912); assay: In vitro Ack1 assay (TranScreener ADP2 FP, generation of ADP); assay type: biochemical; conditions: 12.5 uM compound; 3.5 µM ATP; read-out: Ack1 inh% @12.5 uM
human Ack1 kinase, sequence (Q07912 whole entry): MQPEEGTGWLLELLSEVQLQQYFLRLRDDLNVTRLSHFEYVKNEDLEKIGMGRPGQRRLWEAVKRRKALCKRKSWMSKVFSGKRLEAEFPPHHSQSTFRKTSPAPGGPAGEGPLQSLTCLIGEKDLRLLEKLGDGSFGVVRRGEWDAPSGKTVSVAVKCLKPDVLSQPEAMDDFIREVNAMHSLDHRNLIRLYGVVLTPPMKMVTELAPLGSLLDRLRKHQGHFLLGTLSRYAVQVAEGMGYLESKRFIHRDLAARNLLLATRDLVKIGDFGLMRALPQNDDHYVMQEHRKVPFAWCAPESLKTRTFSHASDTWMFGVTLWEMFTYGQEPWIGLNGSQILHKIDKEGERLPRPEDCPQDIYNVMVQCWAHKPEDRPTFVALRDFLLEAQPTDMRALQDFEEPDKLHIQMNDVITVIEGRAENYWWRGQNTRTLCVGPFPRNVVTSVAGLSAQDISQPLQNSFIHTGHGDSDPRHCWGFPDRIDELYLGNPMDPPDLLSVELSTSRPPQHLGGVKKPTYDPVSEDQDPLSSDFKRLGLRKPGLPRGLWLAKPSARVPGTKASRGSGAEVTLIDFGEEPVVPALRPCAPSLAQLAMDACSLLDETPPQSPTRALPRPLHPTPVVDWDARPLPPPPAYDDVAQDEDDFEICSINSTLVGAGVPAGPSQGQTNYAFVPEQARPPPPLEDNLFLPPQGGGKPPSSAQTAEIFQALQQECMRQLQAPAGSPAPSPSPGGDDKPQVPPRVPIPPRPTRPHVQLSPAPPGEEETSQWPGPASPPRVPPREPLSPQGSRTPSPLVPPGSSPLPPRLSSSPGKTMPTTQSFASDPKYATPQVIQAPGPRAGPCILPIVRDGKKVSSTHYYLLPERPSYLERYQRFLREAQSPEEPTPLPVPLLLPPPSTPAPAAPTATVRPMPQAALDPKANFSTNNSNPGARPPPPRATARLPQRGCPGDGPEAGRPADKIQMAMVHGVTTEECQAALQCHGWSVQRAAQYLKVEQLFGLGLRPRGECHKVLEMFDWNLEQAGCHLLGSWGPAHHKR
Description: The activity of the compounds described in the present invention can be determined by the following kinase assay, which measures the generation of ADP by human Ack1 kinase by fluorescent polarization using a commercially available TranScreener ADP2 FP Assay Kit (BellBrook Labs).
Ack1 kinase assays were performed in low protein binding 384-well plates (Corning). Test compounds were diluted in 100% DMSO to 5 mM stock concentration and then further dilutions were made in H2O or 100% DMSO to desirable concentrations.
Each reaction consisted of 5 nM enzyme: Ack1 kinase, Poly Glu-Tyr (4:1) (Sigma), 3.5 µM ATP and kinase buffer: 20 mM HEPES pH7.5, 1 mM DTT, 2 mM MgCl2, 0.4 mM MnCl2, 0.01 V/V% Tween20 (all reagents from Sigma-Aldrich)
For each reaction, 4 or 6 µl containing Poly Glu-Tyr (4:1), ATP and kinase buffer were combined with 2 µl diluted compound in H2O or 0.02 µl compound in 100% DMSO. The kinase reaction was started by the addition of 2 µl diluted enzyme. The reaction was allowed to run for 1 hour at room temperature. The reaction was stopped by addition of 8 µl ADP detection mixture (1 x) (1 x Detection buffer + 4.78 µg/ml ADP2 Ab + 4 nM ADP Alexa633 Tracer). After an additional hour, fluorescent polarization (Ex: 630-35 nm, Em: 680-30 nm, Dich: 650 nm) was measured using an Analyst GT (Molecular Devices).

human Clk1 kinase = target: T1, human Clk1 kinase (Homo sapiens, UniProt P49759); assay: In vitro Clk1 assay (IMAP fluorescence polarization); assay type: biochemical; conditions: 0.45 µM ATP
T1 construct: Each reaction consisted of 4 nM enzyme: Clk1 kinase domain
T1 sequence (P49759 161-477 limits assumed): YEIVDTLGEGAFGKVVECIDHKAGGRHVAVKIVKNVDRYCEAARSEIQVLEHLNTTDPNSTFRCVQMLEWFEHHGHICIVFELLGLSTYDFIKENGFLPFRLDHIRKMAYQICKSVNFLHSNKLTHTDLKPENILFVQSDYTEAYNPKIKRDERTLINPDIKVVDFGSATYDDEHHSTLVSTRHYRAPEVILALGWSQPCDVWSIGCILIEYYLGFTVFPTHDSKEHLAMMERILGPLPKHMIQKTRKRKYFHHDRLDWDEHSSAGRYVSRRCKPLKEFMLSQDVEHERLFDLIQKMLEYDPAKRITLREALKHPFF
Description: The activity of the compounds described in the present invention can be determined by the following kinase assay, which measures the phosphorylation of a fluorescently-labeled peptide by human Clk1 kinase by fluorescent polarization using a commercially available IMAP Screening Express Assay Kit (Molecular Devices).
Clk1 kinase assays were performed in low protein binding 384-well plates (Corning). Test compounds were diluted in 100% DMSO to 5 mM stock concentration and then further dilutions were made in H2O or 100% DMSO to desirable concentrations.
Each reaction consisted of 4 nM enzyme: Clk1 kinase domain, 400 nM TAMRA-AFRREWSPGKEAKK-NH2 (Genecust), 0.45 µM ATP (Sigma) and kinase buffer: 20 mM TRIS pH 8, 1 mM DTT, 0.4 mM MgCl2, 0.4 mM MnCl2, 0.01 V/V% Tween20 (all reagents from Sigma-Aldrich)
as §1, with “(1:600” for “(1:400”, “(80 %” for “(75%”, “20%” for “25%”

[4] = system: HKE3 human colon carcinoma cell line; assay: In vitro growth inhibition of colon carcinoma cells, HKE3 (CellTiter-Glo); assay type: cell-based; conditions: 72 hours incubation
[5] = system: HepG2 hepatoblastomaderived cell line; assay: In vitro growth inhibition, HepG2 (CellTiter-Glo); assay type: cell-based; conditions: Homo sapiens, 72 hours incubation

CC[C@@H](NC(=O)c1ccc2c(c1)/C(=C(/Nc1cccc(CN3CCCCC3)c1)c1ccccc1)C(=O)N2)c1ccccc1 [Compound 12, (3Z)-2-oxo-3-(phenyl{[3-(piperidin-1-ylmethyl)phenyl]amino}methylene)-N-[(1R)-1-phenylpropyl]indoline-5-carboxamide]
EC50 [1]: 30 nM
EC50 [2]: 6890 nM
solubility at 24 h (physchem; pH 2, aqueous buffer): 110 to 120 µM (≈ 62.8 to 68.5 µg/mL)
solubility at 24 h (physchem; pH 7.4, aqueous buffer): < 10 µM
inhibition at 12.5 µM (human Akt1 kinase; 12.5 uM compound, read-out: Akt1 inh% @12.5 uM): 75.1%
IC50 (human Akt1 kinase): 7980 nM
IC50 [3]: 10 nM
inhibition at 12.5 µM (human Ack1 kinase): 18.1%
IC50 (human Clk1 kinase): 210 nM
EC50 [4]: 20 nM
EC50 [5]: 3520 nM

CC[C@H](NC(=O)c1ccc2c(c1)/C(=C(/Nc1ccc(CN3CCCCC3)cc1)c1ccccc1)C(=O)N2)c1ccccc1 [Compound 32, (3Z)-2-oxo-3-(phenyl{[4-(piperidin-1-ylmethyl)phenyl]amino}methylene)-N-[(1S)-1-phenylpropyl]indoline-5-carboxamide]
EC50 [2]: 6380 nM
solubility at 24 h (physchem; pH 2, aqueous buffer): 110 to 120 µM (≈ 62.8 to 68.5 µg/mL)
solubility at 24 h (physchem; pH 7.4, aqueous buffer): < 10 µM
IC50 (human Akt1 kinase): > 12500 nM
IC50 [3]: 10100 nM
IC50 (human Clk1 kinase): 100 nM

COc1cccc([C@@H](C)NC(=O)c2ccc3c(c2)/C(=C(/Nc2ccc(CN4CCN(C)CC4)cc2)c2ccccc2)C(=O)N3)c1 [Compound 35, (3Z)-N-[(1R)-1-(3-methoxyphenyl)ethyl]-3-[({4-[(4-methylpiperazin-1-yl)methyl]phenyl}amino)(phenyl)methylene]-2-oxoindoline-5-carboxamide]
EC50 [1]: 30 nM
EC50 [2]: 4990 nM
solubility at 24 h (physchem; pH 2, aqueous buffer): 110 to 120 µM (≈ 66.2 to 72.2 µg/mL)
solubility at 24 h (physchem; pH 7.4, aqueous buffer): 10 to 20 µM (≈ 6.02 to 12 µg/mL)
IC50 (human Akt1 kinase): 2510 nM
IC50 [3]: 20 nM
IC50 (human Clk1 kinase): 10 nM
EC50 [4]: 20 nM
EC50 [5]: 2120 nM

C[C@@H](NC(=O)c1ccc2c(c1)/C(=C(/Nc1ccc(CN3CCN(C)CC3)cc1)c1ccccc1)C(=O)N2)c1cccc(Cl)c1 [Compound 36, (3Z)-N-[(1R)-1-(3-chlorophenyl)ethyl]-3-[({4-[(4-methylpiperazin-1-yl)methyl]phenyl}amino)(phenyl)methylene]-2-oxoindoline-5-carboxamide]
EC50 [1]: 20 nM
EC50 [2]: 1770 nM
solubility at 24 h (physchem; pH 2, aqueous buffer): 100 to 110 µM (≈ 60.6 to 66.7 µg/mL)
solubility at 24 h (physchem; pH 7.4, aqueous buffer): < 10 µM
IC50 (human Akt1 kinase): 330 nM
IC50 [3]: < 10 nM
IC50 (human Clk1 kinase): 20 nM
EC50 [4]: 20 nM
EC50 [5]: 640 nM

CC[C@@H](NC(=O)c1ccc2c(c1)/C(=C(/Nc1ccc(CN3CCN(C)CC3)cc1)c1ccccc1)C(=O)N2)c1ccccc1 [Compound 37, (3Z)-3-[({4-[(4-methylpiperazin-1-yl)methyl]phenyl}amino)(phenyl)methylene]-2-oxo-N-[(1R)-1-phenylpropyl]indoline-5-carboxamide]
EC50 [1]: 1 nM
EC50 [2]: 2010 nM
solubility at 24 h (physchem; pH 2, aqueous buffer): 110 to 120 µM (≈ 64.4 to 70.3 µg/mL)
solubility at 24 h (physchem; pH 7.4, aqueous buffer): < 10 µM
IC50 (human Akt1 kinase): 2050 nM
IC50 [3]: < 10 nM
IC50 (human Clk1 kinase): 10 nM
EC50 [4]: < 1.52 nM
EC50 [5]: 360 nM

C[C@@H](NC(=O)c1ccc2c(c1)/C(=C(/Nc1ccc(CN3CCN(C)CC3)cc1)c1ccccc1)C(=O)N2)c1ccccc1 [Compound 38, (3Z)-3-[({4-[(4-methylpiperazin-1-yl)methyl]phenyl}amino)(phenyl)methylene]-2-oxo-N-[(1R)-1-phenylethyl]indoline-5-carboxamide]
EC50 [1]: 10 nM
EC50 [2]: 3670 nM
solubility at 24 h (physchem; pH 2, aqueous buffer): 110 to 120 µM (≈ 62.9 to 68.6 µg/mL)
solubility at 24 h (physchem; pH 7.4, aqueous buffer): 10 to 20 µM (≈ 5.72 to 11.4 µg/mL)
IC50 (human Akt1 kinase): 1830 nM
IC50 [3]: < 10 nM
IC50 (human Clk1 kinase): 10 nM
EC50 [4]: 10 nM
EC50 [5]: 1120 nM

COc1ccc(CNC(=O)c2ccc3c(c2)/C(=C(/Nc2ccc(CN4CCN(C)CC4)cc2)c2ccccc2)C(=O)N3)cc1OC [Compound 39, (3Z)-N-(3,4-dimethoxybenzyl)-3-[({4-[(4-methylpiperazin-1-yl)methyl]phenyl}amino)(phenyl)methylene]-2-oxoindoline-5-carboxamide]
EC50 [1]: 3800 nM
EC50 [2]: 18800 nM
solubility at 24 h (physchem; pH 2, aqueous buffer): 110 to 120 µM (≈ 68 to 74.1 µg/mL)
solubility at 24 h (physchem; pH 7.4, aqueous buffer): < 10 µM
IC50 (human Akt1 kinase): 12300 nM
IC50 [3]: 100 nM
IC50 (human Clk1 kinase): 10 nM
EC50 [4]: 2960 nM
EC50 [5]: 24200 nM

COc1cccc(CNC(=O)c2ccc3c(c2)/C(=C(/Nc2ccc(CN4CCN(C)CC4)cc2)c2ccccc2)C(=O)N3)c1 [Compound 40, (3Z)-N-(3-methoxybenzyl)-3-[({4-[(4-methylpiperazin-1-yl)methyl]phenyl}amino)(phenyl)methylene]-2-oxoindoline-5-carboxamide]
EC50 [1]: 110 nM
EC50 [2]: 14600 nM
solubility at 24 h (physchem; pH 2, aqueous buffer): 110 to 120 µM (≈ 64.6 to 70.5 µg/mL)
solubility at 24 h (physchem; pH 7.4, aqueous buffer): < 10 µM
IC50 (human Akt1 kinase): 3400 nM
IC50 [3]: < 10 nM
IC50 (human Clk1 kinase): 10 nM
EC50 [4]: 80 nM
EC50 [5]: 10000 nM
